Source: patent publication US12673936B2, “Isoindolinone compounds, and uses thereof” (HANGZHOU GLUBIO PHARMACEUTICAL CO., LTD., priority 2021, dated 2026)

What was measured:
[1] = target: HiBiT tagged CK1α (Homo sapiens, UniProt P48729+Q96SW2); assay: CK1α degradation assay (HiBiT assay); assay type: cell-based; settings: 20 hours; for Dmax: HT-1080, HT-1080 cells; for Dmax / HiBiT CK1α: Dmax: maximum CK1α degradation; for DC50 / HiBiT CK1α: Dmax: HT-1080 cells; for DC50: concentration at 50% CK1α degradation
Protocol: (§1) CK1α and GSPT1 Degradation Assay (HiBiT Assay) The following is an example of an assay that can be used to determine the dose-dependent CK1α and GSPT1 degradation activities of test compounds in a human cell line such as HT-1080 ([…]). HT-1080 cells stably overexpressing wild-type CRBN, GSPT1A(1-138)/G575N mutant and HiBiT tagged CK1α or GSPT1 were seeded into 384-well plates (Cat #3764, Corning) pre-spotted with DMSO or test compounds. Increasing concentrations of test compounds (ranging from 3.162×10^-4 μM to 10 μM at a 3.16-fold increment) or DMSO were dispensed into an empty 384-well plate using an Echo Acoustic Liquid Handler (Beckman Coulter). About 10,000 cells in complete DMEM cell culture media were seeded per well. […] Luminescence was then measured with an EnVision plate reader (PerkinElmer) or a PHERAstar plate reader (BMG Labtech). All CK1α or GSPT1 degradation curves were processed using Collaborative Drug Discovery Vault softwares (Burlingame, CA., www.collaborativedrug.com). CK1α or GSPT1 levels in compound-treated wells were normalized to that of DMSO control and expressed as Percent of Control (PoC, y). […]

[2] = target: HiBiT tagged GSPT1 (Homo sapiens, UniProt P15170+Q96SW2); assay: GSPT1 degradation assay (HiBiT assay); assay type: cell-based; settings: 20 hours, maximum GSPT1 degradation; for Dmax: HT-1080, HT-1080 cells; for HiBiT GSPT1: Dmax: HT-1080 cells
Protocol: as §1

Chain of HiBiT tagged CK1α (P48729 whole entry): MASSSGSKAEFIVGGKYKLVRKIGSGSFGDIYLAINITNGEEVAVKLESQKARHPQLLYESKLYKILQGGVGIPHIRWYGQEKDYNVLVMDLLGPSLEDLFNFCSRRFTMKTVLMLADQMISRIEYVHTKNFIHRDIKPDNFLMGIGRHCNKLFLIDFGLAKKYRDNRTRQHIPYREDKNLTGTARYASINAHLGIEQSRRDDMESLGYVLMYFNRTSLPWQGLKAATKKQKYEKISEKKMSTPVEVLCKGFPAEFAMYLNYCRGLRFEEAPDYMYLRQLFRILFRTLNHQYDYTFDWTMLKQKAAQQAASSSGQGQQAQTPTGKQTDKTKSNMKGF
Chain of HiBiT tagged CK1α (Q96SW2 whole entry): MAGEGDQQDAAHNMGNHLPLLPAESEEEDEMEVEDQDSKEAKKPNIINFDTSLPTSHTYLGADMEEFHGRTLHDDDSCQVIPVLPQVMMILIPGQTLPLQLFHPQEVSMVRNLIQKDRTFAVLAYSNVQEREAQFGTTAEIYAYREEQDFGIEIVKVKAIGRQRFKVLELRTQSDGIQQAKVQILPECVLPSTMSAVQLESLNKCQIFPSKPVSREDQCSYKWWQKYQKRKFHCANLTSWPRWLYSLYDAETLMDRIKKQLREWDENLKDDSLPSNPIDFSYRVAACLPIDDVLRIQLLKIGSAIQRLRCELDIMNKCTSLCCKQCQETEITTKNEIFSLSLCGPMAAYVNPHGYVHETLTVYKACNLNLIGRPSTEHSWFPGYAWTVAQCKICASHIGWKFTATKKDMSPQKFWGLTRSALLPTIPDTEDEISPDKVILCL
Chain of HiBiT tagged CK1α (Q16531 whole entry partner): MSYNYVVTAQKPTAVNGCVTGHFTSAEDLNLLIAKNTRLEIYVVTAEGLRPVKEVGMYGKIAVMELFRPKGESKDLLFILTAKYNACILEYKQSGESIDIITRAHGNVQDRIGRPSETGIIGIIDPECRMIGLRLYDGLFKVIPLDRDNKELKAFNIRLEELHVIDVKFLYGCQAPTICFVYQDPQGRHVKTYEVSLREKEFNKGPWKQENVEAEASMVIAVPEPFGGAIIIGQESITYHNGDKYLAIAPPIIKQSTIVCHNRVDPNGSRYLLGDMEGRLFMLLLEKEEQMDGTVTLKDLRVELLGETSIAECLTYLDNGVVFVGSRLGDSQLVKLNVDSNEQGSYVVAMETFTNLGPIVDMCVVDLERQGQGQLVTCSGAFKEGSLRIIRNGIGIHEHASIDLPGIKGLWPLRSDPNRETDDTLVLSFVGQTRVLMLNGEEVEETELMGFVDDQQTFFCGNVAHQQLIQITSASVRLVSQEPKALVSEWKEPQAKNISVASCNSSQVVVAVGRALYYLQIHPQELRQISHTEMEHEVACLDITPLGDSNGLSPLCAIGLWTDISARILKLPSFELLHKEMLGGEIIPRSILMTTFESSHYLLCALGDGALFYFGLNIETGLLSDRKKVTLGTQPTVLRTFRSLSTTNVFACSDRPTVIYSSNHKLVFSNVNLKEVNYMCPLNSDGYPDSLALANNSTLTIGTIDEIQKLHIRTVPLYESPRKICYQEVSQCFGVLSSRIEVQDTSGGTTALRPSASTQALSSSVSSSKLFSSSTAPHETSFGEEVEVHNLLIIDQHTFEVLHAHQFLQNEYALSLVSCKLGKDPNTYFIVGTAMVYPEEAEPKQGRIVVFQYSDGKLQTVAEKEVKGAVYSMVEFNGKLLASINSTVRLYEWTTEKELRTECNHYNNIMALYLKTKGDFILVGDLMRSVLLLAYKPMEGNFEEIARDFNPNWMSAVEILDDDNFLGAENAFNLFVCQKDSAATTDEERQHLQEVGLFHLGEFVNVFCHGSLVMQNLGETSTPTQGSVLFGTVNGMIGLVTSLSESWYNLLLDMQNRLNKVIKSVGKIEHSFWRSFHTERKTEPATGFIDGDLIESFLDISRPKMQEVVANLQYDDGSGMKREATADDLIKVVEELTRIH
Chain of HiBiT tagged GSPT1 (P15170 whole entry): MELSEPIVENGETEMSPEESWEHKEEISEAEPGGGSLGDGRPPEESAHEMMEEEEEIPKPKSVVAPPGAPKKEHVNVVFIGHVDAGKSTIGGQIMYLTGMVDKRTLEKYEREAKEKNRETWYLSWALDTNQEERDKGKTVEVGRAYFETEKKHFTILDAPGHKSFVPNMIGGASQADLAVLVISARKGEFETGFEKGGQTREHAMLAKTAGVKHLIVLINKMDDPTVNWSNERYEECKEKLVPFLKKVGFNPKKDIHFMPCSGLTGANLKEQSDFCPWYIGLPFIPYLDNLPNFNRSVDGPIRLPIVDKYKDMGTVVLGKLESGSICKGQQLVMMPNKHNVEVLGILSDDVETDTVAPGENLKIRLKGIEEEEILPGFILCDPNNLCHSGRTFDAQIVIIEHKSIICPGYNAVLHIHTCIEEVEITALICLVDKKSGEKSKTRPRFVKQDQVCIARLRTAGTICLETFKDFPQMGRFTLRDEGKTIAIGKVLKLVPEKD
Chain of HiBiT tagged GSPT1 (Q96SW2 whole entry): as the sequence (Q96SW2 whole entry) above
Chain of HiBiT tagged GSPT1 (Q16531 whole entry partner): as the sequence (Q16531 whole entry partner) above

| Compound | Dmax [1] [%] | DC50 [1] [nM] | Dmax [2] [%] | HiBiT CK1α: Dmax [1] [%] | HiBiT GSPT1: Dmax [2] [%] |
| --- | --- | --- | --- | --- | --- |
| O=C1CC[C@@H](N2Cc3cc(C(=O)N[C@H](c4ccc(F)cc4Cl)C4CCC4)ccc3C2=O)C(=O)N1 (racemic) [Compound 50, N-((*S)-(2-chloro-4-fluorophenyl)(cyclobutyl)methyl)-2-((*R)-2,6-dioxopiperidin-3-yl)-1-oxoisoindoline-5-carboxamide] | 63.1 | 237 | 42.7 | – | – |
| O=C1CC[C@H](N2Cc3cc(C(=O)N[C@H](c4ccc(F)cc4Cl)C4CCC4)ccc3C2=O)C(=O)N1 (racemic) [Compound 51, N-((*S)-(2-chloro-4-fluorophenyl)(cyclobutyl)methyl)-2-((*S)-2,6-dioxopiperidin-3-yl)-1-oxoisoindoline-5-carboxamide] | 62.3 | 142 | 46 | – | – |
| O=C1CC[C@@H](N2Cc3cc(C(=O)N[C@H](c4ccc(F)cc4Cl)C4CCC4)ccc3C2=O)C(=O)N1 (racemic) [Compound 52, N-((*S)-(2-chloro-4-fluorophenyl)(cyclobutyl)methyl)-2-((*R)-2,6-dioxopiperidin-3-yl)-1-oxoisoindoline-5-carboxamide] | – | 95 | – | 73.9 | 28.5 |
| O=C1CC[C@@H](N2Cc3cc(C(=O)N[C@H](c4ccc(Cl)cc4F)C4CCC4)ccc3C2=O)C(=O)N1 (racemic) [Compound 54, N-((*S)-(4-chloro-2-fluorophenyl)(cyclobutyl)methyl)-2-((*R)-2,6-dioxopiperidin-3-yl)-1-oxoisoindoline-5-carboxamide] | 56.5 | 1110 | – | – | 47.9 |
| O=C1CC[C@H](N2Cc3cc(C(=O)N[C@H](c4ccc(Cl)cc4F)C4CCC4)ccc3C2=O)C(=O)N1 (racemic) [Compound 55, N-((*S)-(4-chloro-2-fluorophenyl)(cyclobutyl)methyl)-2-((*S)-2,6-dioxopiperidin-3-yl)-1-oxoisoindoline-5-carboxamide] | 57.8 | 948 | – | – | 48 |
| O=C1CC[C@@H](N2Cc3cc(C(=O)N[C@H](c4ccc(Cl)cc4F)C4CCC4)ccc3C2=O)C(=O)N1 (racemic) [Compound 56, N-((*S)-(4-chloro-2-fluorophenyl)(cyclobutyl)methyl)-2-((*R)-2,6-dioxopiperidin-3-yl)-1-oxoisoindoline-5-carboxamide] | – | 93.7 | – | 63.6 | 15.3 |
| O=C1CC[C@H](N2Cc3cc(C(=O)N[C@H](c4ccc(Cl)cc4F)C4CCC4)ccc3C2=O)C(=O)N1 (racemic) [Compound 57, N-((*S)-(4-chloro-2-fluorophenyl)(cyclobutyl)methyl)-2-((*S)-2,6-dioxopiperidin-3-yl)-1-oxoisoindoline-5-carboxamide] | – | 128 | – | 64.4 | 19.1 |
| O=C1CCC(N2Cc3cc(C(=O)NC(c4ccc(F)cc4Cl)C4CCC4)ccc3C2=O)C(=O)N1 (single isomer, unassigned) [Compound 53, N-((*S)-(2-chloro-4-fluorophenyl)(cyclobutyl)methyl)-2-((*S)-2,6-dioxopiperidin-3-yl)-1-oxoisoindoline-5-carboxamide] | 70.2 | 118 | 24.2 | – | – |

Continued, values first:

| Dmax [1] [%] | DC50 [1] [nM] | Dmax [2] [%] | HiBiT CK1α: Dmax [1] [%] | HiBiT GSPT1: Dmax [2] [%] | Compound |
| --- | --- | --- | --- | --- | --- |
| 54.6 | 1300 | 32.4 | – | – | O=C1CC[C@H](N2Cc3cc(C(=O)N[C@H](c4ccc(F)c(F)c4)C4CCC4)ccc3C2=O)C(=O)N1 (racemic) [Compound 46, N-((*R)-cyclobutyl(3,4-difluorophenyl)methyl)-2-((*S)-2,6-dioxopiperidin-3-yl)-1-oxoisoindoline-5-carboxamide] |
| – | 130 | – | 66.2 | 26.2 | O=C1CC[C@H](N2Cc3cc(C(=O)N[C@H](c4ccc(F)c(F)c4)C4CCC4)ccc3C2=O)C(=O)N1 (racemic) [Compound 48, N-((*S)-cyclobutyl(3,4-difluorophenyl)methyl)-2-((S)-2,6-dioxopiperidin-3-yl)-1-oxoisoindoline-5-carboxamide] |
| – | < 47.1 | 27.4 | 49 | – | O=C1CC[C@H](N2Cc3cc(C(=O)N[C@H](c4ccc(F)cc4)C4CCCC4)ccc3C2=O)C(=O)N1 (racemic) [Compound 60, N-((*R)-cyclopentyl(4-fluorophenyl)methyl)-2-((S)-2,6-dioxopiperidin-3-yl)-1-oxoisoindoline-5-carboxamide] |
| 49.5 | – | 29.3 | – | – | O=C1CCC(N2Cc3cc(C(=O)N[C@H](c4ccc(F)cc4)C4CCCC4)ccc3C2=O)C(=O)N1 (mixture of isomers) [Compound 61, N-((*S)-cyclopentyl(4-fluorophenyl)methyl)-2-((R)-2,6-dioxopiperidin-3-yl)-1-oxoisoindoline-5-carboxamide] |
| – | 53.5 | – | 72.2 | 29 | O=C1CC[C@H](N2Cc3cc(C(=O)N[C@H](c4ccc(F)cc4)C4CCCC4)ccc3C2=O)C(=O)N1 (racemic) [Compound 63, N-((*S)-cyclopentyl(4-fluorophenyl)methyl)-2-((S)-2,6-dioxopiperidin-3-yl)-1-oxoisoindoline-5-carboxamide] |
| 56.1 | 2960 | 29.7 | – | – | O=C1CCC(N2Cc3cc(C(=O)NC(c4ccc(F)c(F)c4)C4CCC4)ccc3C2=O)C(=O)N1 (single isomer, unassigned) [Compound 47, N-((*R)-cyclobutyl(3,4-difluorophenyl)methyl)-2-((*R)-2,6-dioxopiperidin-3-yl)-1-oxoisoindoline-5-carboxamide] |
| 68.6 | 112 | 28.6 | – | – | O=C1CC[C@@H](N2Cc3cc(C(=O)NC(c4ccc(F)c(F)c4)C4CCC4)ccc3C2=O)C(=O)N1 (single isomer, unassigned) [Compound 49, N-((*S)-cyclobutyl(3,4-difluorophenyl)methyl)-2-((R)-2,6-dioxopiperidin-3-yl)-1-oxoisoindoline-5-carboxamide] |
| 69.8 | 77.7 | 27.5 | – | – | O=C1CC[C@@H](N2Cc3cc(C(=O)NC(c4ccc(F)cc4)C4CCCC4)ccc3C2=O)C(=O)N1 (single isomer, unassigned) [Compound 62, N-((*S)-cyclopentyl(4-fluorophenyl)methyl)-2-((R)-2,6-dioxopiperidin-3-yl)-1-oxoisoindoline-5-carboamide] |
| – | 180 | – | 67 | 33.6 | O=C1CCC(N2Cc3cc(C(=O)N[C@@H](c4ccc(Cl)cc4)C4CC4)ccc3C2=O)C(=O)N1 (stereo in doubt) [Compound 2, N—((*R)-(4-chlorophenyl)(cyclopropyl)methyl)-2-(2,6-dioxopiperidin-3-yl)-1-oxoisoindoline-5-carboxamide] |
| 50.6 | 5190 | 73.1 | – | – | O=C1CCC(N2Cc3cc(C(=O)N[C@H](c4ccc(Cl)cc4)C4CC4)ccc3C2=O)C(=O)N1 (stereo in doubt) [Compound 3, N—((*S)-(4-chlorophenyl)(cyclopropyl)methyl)-2-(2,6-dioxopiperidin-3-yl)-1-oxoisoindoline-5-carboxamide] |
